Test results from patent US20120328569A1, “INHIBITORS OF HEPATITIS C VIRUS NS5B POLYMERASE” (priority 2010, published 2012).

The molecules below were run on HCV genotype 1b replicon (assay: HCV replicon assay, cell ELISA with antibody to replicon-encoded NS3/4A (genotype 1b replicon)). Conditions: Hepatitis C virus, 96 h, read-out: 1b IC50(nM), HCV genotype 1b replicon; 96 hours incubation; NS3/4A cell ELISA.
Assay type: cell-based, hepatitis C virus
How it was run: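 An ELISA on lysed cells, using an antibody against NS3/4A protease, served as the proxy for replicon RNA. Cells had first been exposed for 96 h to serially diluted compound in G418-free conditions. Percent of DMSO control was fitted with a four-parameter function to give IC50.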

Row | Compound | IC50 [nM]
1 | CNC(=O)c1c(-c2ccc(F)cc2)oc2cc(N(CC(C)N)S(C)(=O)=O)c(-c3cccc(-c4nc5ncccc5o4)c3)cc12 (stereo not shown) [Example 830] | 8.47
2 | CNC(=O)c1c(-c2ccc(F)cc2)oc2cc(N(C)S(C)(=O)=O)c(-c3cc4c(c(-c5nc6c(F)cccc6o5)c3)OCCO4)cc12 [Example 436] | 4.37
3 | CNC(=O)c1c(-c2ccc(F)cc2)oc2cc(N(CC3CCS(=O)(=O)C3)S(C)(=O)=O)c(-c3cccc(-c4nc5ncccc5o4)c3)cc12 (stereo not shown) [Example 719] | 3.14
4 | CNC(=O)c1c(-c2ccc(F)cc2)oc2cc(N(CCC(C)(C)O)S(C)(=O)=O)c(-c3ccc(OC)c(-c4nc5ncccc5o4)c3)cc12 [Example 880] | 2.9
5 | CNC(=O)c1c(-c2ccc(F)cc2)oc2cc(N(C)S(C)(=O)=O)c(-c3ccc(C(=O)N(C)C)c(-c4nc5c(F)cccc5o4)c3)cc12 [Example 655] | 2.52
6 | CNC(=O)c1c(-c2ccc(F)cc2)oc2cc(N(C)S(C)(=O)=O)c(-c3ccc(-c4ccco4)c(-c4nc5c(F)cccc5o4)c3)cc12 [Example 478] | 8.65
7 | CNC(=O)c1c(-c2ccc(F)cc2)oc2cc(N(CCF)S(C)(=O)=O)c(-c3ccc(OC)c(-c4nc5cccc(F)c5o4)c3)cc12 [Example 871] | 3.5
8 | CNC(=O)c1c(-c2ccc(F)cc2)oc2cc(N(C)S(C)(=O)=O)c(-c3cccc(-c4nc5c(o4)CCCC5(F)F)c3)cc12 [Example 515] | 3.99
9 | CNC(=O)c1c(-c2ccc(F)cc2)oc2cc(N(C)S(C)(=O)=O)c(-c3ccc4c(c3)-c3[nH]c5ccccc5c3C(c3cccnc3)O4)cc12 (stereo not shown) [Example 589] | 3.38
10 | CNC(=O)c1c(-c2ccc(F)cc2)oc2cc(N(C(CO)CO)S(C)(=O)=O)c(-c3ccc(OC)c(-c4nc5c(F)cccc5o4)c3)cc12 [Example 782] | 5.41
11 | CNC(=O)c1c(-c2ccc(F)cc2)oc2cc(N(CCC(C)(C)C#N)S(C)(=O)=O)c(-c3ccc(OC)c(-c4nc5c(F)cc(F)cc5o4)c3)cc12 [Example 735] | 10.5
12 | CNC(=O)c1c(-c2ccc(F)cc2)oc2cc(N(C)S(C)(=O)=O)c(-c3ccc(OC)c(-c4cc5ncccc5s4)c3)cc12 [Example 688] | 7.53
13 | CNC(=O)c1c(-c2ccc(F)cc2)oc2cc(N(C)S(C)(=O)=O)c(-c3ccc(C(=O)O)c(-c4nc5c(F)cccc5o4)c3)cc12 [Example 651] | 155
14 | CNC(=O)c1c(-c2ccc(F)cc2)oc2cc(N(CC3CC(O)C3)S(C)(=O)=O)c(-c3ccc(OC)c(-c4nc5c(F)cccc5o4)c3)cc12 (stereo not shown) [Example 701] | 6.21
15 | CNC(=O)c1c(-c2ccc(F)cc2)oc2cc(N(C)S(C)(=O)=O)c(-c3ccc(OC)c(-c4nc5cc(F)cc(F)c5o4)c3)cc12 [Example 551] | 1.3

Same assay, conditions: Hepatitis C virus, 96 h, read-out: Replicon 1b IC50 (nM), HCV genotype 1b replicon cells, 96 hours incubation, NS3/4A ELISA readout

Row | Compound | IC50 [nM]
16 | CNC(=O)c1c(-c2ccc(F)cc2)oc2cc(N(C)S(C)(=O)=O)c(-c3cccc(OC)c3)cc12 [Example 88, 2-(4-fluorophenyl)-5-(3-methoxyphenyl)-N-methyl-6-[methyl (methylsulfonyl)amino]-1-benzofuran-3-carboxamide] | 52
17 | CNC(=O)c1c(-c2ccc(F)cc2)oc2cc(N(C)S(C)(=O)=O)c(-c3cccc(-c4cnc(-c5ccccc5)s4)c3)cc12 [Example 136, 2-(4-fluorophenyl)-N-methyl-6-[methyl (methylsulfonyl)amino]-5-[3-(2-phenyl-1,3-thiazol-5-yl)phenyl]-1-benzofuran-3-carboxamide] | 16
18 | CNC(=O)c1c(-c2ccc(F)cc2)oc2cc(N(C)S(C)(=O)=O)c(-c3cccc(-c4nc5cccnc5[nH]4)c3)cc12 [Example 299, 5-(3-(3H-imidazo[4,5-b]pyridin-2-yl)phenyl)-2-(4-fluorophenyl)-N-methyl-6-(N-methylmethylsulfonamido)benzofuran-3-carboxamide] | 3.3
19 | CNC(=O)c1c(-c2ccc(F)cc2)oc2cc(NC(C)c3ccccc3)c(-c3ccccc3)cc12 (stereo not shown) [Example 69, 2-(4-fluorophenyl)-N-methyl-5-phenyl-6-[(1-phenylethyl)amino]-1-benzofuran-3-carboxamide] | > 3000
20 | CNC(=O)c1c(-c2ccc(F)cc2)oc2cc(N(C)S(C)(=O)=O)c(-c3ccc(OC)c(-c4nc5cccnc5[nH]4)c3)cc12 [Example 312] | 1.1
21 | CNC(=O)c1c(-c2ccc(F)cc2)oc2cc(N(C)S(C)(=O)=O)c(-c3cc(-c4nc5ccccc5s4)ccc3F)cc12 [Example 290] | 6.9
22 | CNC(=O)c1c(-c2ccc(F)cc2)oc2cc(N(CCC3CCCCC3)S(C)(=O)=O)c(-c3ccccc3)cc12 [Example 27, 6-[(2-cyclohexylethyl) (methylsulfonyl)amino]-2-(4-fluorophenyl)-N-methyl-5-phenyl-1-benzofuran-3-carboxamide] | 384
23 | CNC(=O)c1c(-c2ccc(F)cc2)oc2cc(N(C)S(C)(=O)=O)c(-c3cc(F)cc(-c4nc5c(N)ncnc5[nH]4)c3)cc12 [Example 350] | 0.7
24 | CNC(=O)c1c(-c2ccc(F)cc2)oc2cc(N(C)S(C)(=O)=O)c(-c3cccc(-c4noc5ccccc45)c3)cc12 [Example 138, 5-[3-(1,2-benzisoxazol-3-yl)phenyl]-2-(4-fluorophenyl)-N-methyl-6-[methyl (methylsulfonyl)amino]-1-benzofuran-3-carboxamide] | 9
25 | CNC(=O)c1c(-c2ccc(F)cc2)oc2cc(N(C)S(C)(=O)=O)c(-c3ccc(OC)c(-c4nc5nccnc5[nH]4)c3)cc12 [Example 338] | 1.5
26 | CNC(=O)c1c(-c2ccc(F)cc2)oc2cc(N(C)S(C)(=O)=O)c(-c3ccc(F)c(-c4nc5cc(Cl)cnc5[nH]4)c3)cc12 [Example 311] | 1.7
27 | CONC(=O)c1c(-c2ccc(F)cc2)oc2cc(N(C)S(C)(=O)=O)c(-c3cccc(C)c3)cc12 [Example 92, 2-(4-fluorophenyl)-N-methoxy-6-[methyl (methylsulfonyl)amino]-5-(3-methylphenyl)-1-benzofuran-3-carboxamide] | 252
28 | CNC(=O)c1c(-c2ccc(F)cc2)oc2cc(N(C)S(C)(=O)=O)c(-c3cc(C#N)cc(-c4nc5cncnc5[nH]4)c3)cc12 [Example 348] | 72.7
29 | CNC(=O)c1c(-c2ccc(F)cc2)oc2cc(N(C)S(C)(=O)=O)c(-c3cccc(-c4nc5ccc(F)cc5o4)c3)cc12 [Example 159] | 1.8
30 | CNC(=O)c1c(-c2ccc(F)cc2)oc2cc(N(C)S(C)(=O)=O)c(-c3cc(OC)cc(-c4cc5ccccc5[nH]4)c3)cc12 [Compound 375] | 2.7
31 | CNC(=O)c1c(-c2ccc(F)cc2)oc2cc(N(C)S(C)(=O)=O)c(-c3cc(-c4nc5cnccc5o4)ccc3F)cc12 [Example 214] | 6.3

Row | Compound | IC50 [nM]
32 | CNC(=O)c1c(-c2ccc(F)cc2)oc2cc(N(C)S(C)(=O)=O)c(-c3cc(-c4nc5ncccc5o4)c(OC)cc3F)cc12 [Example 207] | 2.4
33 | CNC(=O)c1c(-c2ccc(F)cc2)oc2cc(N(CCN3CCOCC3)S(C)(=O)=O)c(-c3cccc(-c4nc5ncccc5o4)c3)cc12 [Example 397, 2-(4-fluorophenyl)-N-methyl-6-(N-(2-morpholinoethyl)methylsulfonamido)-5-(3-(oxazolo[4,5-b]pyridin-2-yl)phenyl)benzofuran-3-carboxamide] | 3.6
34 | CNC(=O)c1c(-c2ccc(F)cc2)oc2cc(N(C)S(C)(=O)=O)c(-c3ccc(Cl)c(-c4nc5ccc(OC)nc5[nH]4)c3)cc12 [Example 320] | 13.1
35 | CNC(=O)c1c(-c2ccc(F)cc2)oc2cc(N(C)S(C)(=O)=O)c(-c3cc(F)cc(-c4nc5ccccc5s4)c3)cc12 [Example 289] | 5.4
36 | CNC(=O)c1c(-c2ccc(F)cc2)oc2cc(NCCN(C)c3ccccc3)c(-c3ccccc3)cc12 [Example 70, 2-(4-fluorophenyl)-N-methyl-6-({2-[methyl(phenyl)amino]ethyl}amino)-5-phenyl-1-benzofuran-3-carboxamide] | 329
37 | CNC(=O)c1c(-c2ccc(F)cc2)oc2cc(N(C)S(C)(=O)=O)c(-c3cccc(-c4nnn(Cc5ccccc5)n4)c3)cc12 [Example 139, 5-[3-(2-benzyl-2H-tetrazol-5-yl)phenyl]-2-(4-fluorophenyl)-N-methyl-6-[methyl (methylsulfonyl)amino]-1-benzofuran-3-carboxamide] | 5
38 | CNC(=O)c1c(-c2ccc(F)cc2)oc2cc(N(C)S(C)(=O)=O)c(-c3cc(-c4nc5ccccc5o4)ccc3F)cc12 [Example 169] | 6.4
39 | CNC(=O)c1c(-c2ccc(F)cc2)oc2cc(N(C)S(C)(=O)=O)c(-c3cc(OC)cc(-c4nc5nccnc5[nH]4)c3)cc12 [Example 339] | 4
40 | CNC(=O)c1c(-c2ccc(F)cc2)oc2cc(N(CCCO)S(C)(=O)=O)c(-c3ccccc3)cc12 [Example 28, 2-(4-fluorophenyl)-6-[(3-hydroxypropyl) (methylsulfonyl)amino]-N-methyl-5-phenyl-1-benzofuran-3-carboxamide] | 46
41 | CNC(=O)c1c(-c2ccc(F)cc2)oc2cc(N(C)S(C)(=O)=O)c(-c3cc(C#N)cc(-c4nc5c(C)ccnc5[nH]4)c3)cc12 [Example 325] | 3.2
42 | CNC(=O)c1c(-c2ccc(F)cc2)oc2cc(N(C)S(C)(=O)=O)c(-c3cccc(-c4nc5ccc(NS(=O)(=O)c6ccccc6)cc5o4)c3)cc12 [Example 284] | 5.3
43 | CNC(=O)c1c(-c2ccc(F)cc2)oc2cc(N(C)S(C)(=O)=O)c(-c3cc(C#N)cc(-c4nc5ncccc5o4)c3)cc12 [Example 209] | 5.5
44 | CNC(=O)c1c(-c2ccc(F)cc2)oc2cc(N(C)S(C)(=O)=O)c(-c3ccc(F)c(-c4nc5cc(F)ccc5[nH]4)c3)cc12 [Example 301] | 1.9
45 | CNC(=O)c1c(-c2ccc(F)cc2)oc2cc(N(C)S(C)(=O)=O)c(-c3cc(F)cc(-c4nc5cc(F)cnc5o4)c3)cc12 [Example 220] | 1.5
46 | CNC(=O)c1c(-c2ccc(F)cc2)oc2cc(N(C)S(C)(=O)=O)c(-c3ccc(OC)c(-c4nc5cccc(C)c5o4)c3)cc12 [Example 192] | 1.9
